Patent publication US12347214B2, “Microspore culture predictive model generation and use” (PIONEER HI-BRED INTERNATIONAL, INC., priority 2019, dated 2025)

Key:
[1] = test system: AtWOX2pro::CENH3-GFP activity in transgenic canola microspores; test: AtWOX2pro::CENH3-GFP reporter activity in canola microspore culture with inducing agent; assay type: cell-based; conditions: with trichostatin A treatment
From the text: The methods described above for corn may also be adapted for use with other crops and for use with a reporter gene. As proof of concept, Canola microspore cells were obtained from a plant line that had been transformed with a green fluorescent protein reporter gene fused to a plant developmental gene with an effect on plant histones. While transformation was used in this case, other known gene insertion techniques such as CRISPR may be used to insert the reporter gene into the plant genome. A stable homozygous Canola line with the AtWOX2pro::CENH3-GFP fusion protein was developed. This protein attaches to plant histones, associates with plant chromocenters and can be used to determine chromosome number. GFP served as the reporter gene, although any reporter gene could also be used. This stable transgenic line was used to generate a microspore for in vitro tissue culture. Trichostatin A, a histone deacetylase inhibitor known to alter the embryogenic potential of dicot microspores was used as the inducing agent.

plant cells = test: Staining of plant cells with fluorescent dye, continued cell development; assay type: cell-based; conditions: dye added at the beginning of the culture; plant cells continued to develop
From the text: (§1) In the embodiment described herein, the fluorescent dye BODIPY 564/70, which stains both cell membranes and subcellular compartments, such as vacuoles, was used. […] BODIPY 564/70 is non-toxic to plant cells, so the plant cells continued to develop. BODIPY 564/70 is also very stable in cell culture conditions, so supplementation of the dye at the beginning of the culture was sufficient to generate informative images until the end point of the analysis. Other dyes, combinations of dyes, such as CFDA and FM4-64, and combinations of dyes with fluorescent protein markers, may also be used with the present method in order to generate different images. Options for fluorescent imaging include imaging cells that comprise fluorescent proteins, such as green (GFP), blue (EBFP, EBFP2, Azurite, mKalama1), cyan (ECFP, Cerulean, CyPet, mTurquoise2), red (dsRed, mCherry, tomato, etc.), far-red (mIFP, iBlueberry etc.) and yellow (YFP, Citrine, Venus, YPet). Plant cell stain techniques are known in the art, for example, see Ruzin, S. E. Plant Microtechnique and Microscopy. New York: Oxford University Press. ISBN 0195089561 (1999).

[2] = Dye stability in cell culture conditions; assay type: physicochemical; conditions: supplementation at beginning of culture sufficient until end point of analysis
From the text: as §1

Row | stability in cell culture conditions [2] | Compound | detection of AtWOX2pro::CENH3-GFP activity ([1]; first timepoint) | detection of AtWOX2pro::CENH3-GFP activity ([1]; second time point) | toxicity to plant cells (plant cells)
1 | – | CC(/C=C/C(=O)NO)=C\[C@@H](C)C(=O)c1ccc(N(C)C)cc1 [trichostatin A, Trichostatin A] | no or very low detection | increased detection | –
2 | very stable | BODIPY 564/70 | – | – | non-toxic
